We go through 15 molecules from patent publication US20250215032A1, “PHOSPHORYLPURINONE COMPOUNDS FOR THE TREATMENT OF CANCER” (Hoffmann-La Roche Inc., priority 2022, published 2025).

In brackets after ≈: the same amount, converted by molar mass.

The nature of data set [1]: Lyophilisation solubility assay (LYSA), kinetic solubility. The class given is physicochemical. The conditions noted are these: aqueous buffer; 0.05 M phosphate buffer (pH 6.5), from 10 mM DMSO stock after evaporation. The text has this:
The solubility of a substance can be broadly defined as the maximum amount of the substance that dissolves in a specified volume of solvent. However, it is important to understand that the solubility of a compound can vary drastically depending on the condition of the solvent (e.g. temperature and pH) and the physiochemical properties of the compound (e.g. ionisation and crystallinity). These critical factors need to be considered during solubility determination in order to generate high quality solubility data that will be useful in the progression of compounds through the discovery and development stages. The kinetic solubility of a compound is the maximum solubility of the fastest precipitating species of the compound; this is often measured using a stock solution of the compound dissolved in an organic solvent, typically dimethyl sulfoxide (DMSO), as the starting material. […] The precipitate formed, which is rarely determined during the assessment, could be any combination of various possible solid states of the compound. Given the level of supersaturation that could occur when an organic solvent is diluted in water, kinetic solubility values are typically higher than the corresponding thermodynamic (equilibrium) solubility values. Solubility assays in the early discovery process often determine kinetic solubility. The lyophilisation solubility assay (LYSA) is a high throughput kinetic solubility assay for the early drug discovery process.
Samples were prepared in duplicate from 10 mM DMSO stock solution. After evaporation of DMSO with a centrifugal vacuum evaporator, the compounds were solved in 0.05 M phosphate buffer (pH 6.5), stirred for one hour and shaken for two hours. After one night, the solutions were filtered using a microtiter filter plate. Then the filtrate and its 1/10 dilution were analyzed by HPLC-UV. […] The results were in μg/mL. […] It should be noted that metastable solid phases may form during the evaporation step, and the method might therefore produce higher solubility values than assays using the stable polymorph as the starting material.

The target of the next data set is T1, human TLR7 (Homo sapiens, UniProt Q9NYK1).
T1 sequence (Q9NYK1 27-1049): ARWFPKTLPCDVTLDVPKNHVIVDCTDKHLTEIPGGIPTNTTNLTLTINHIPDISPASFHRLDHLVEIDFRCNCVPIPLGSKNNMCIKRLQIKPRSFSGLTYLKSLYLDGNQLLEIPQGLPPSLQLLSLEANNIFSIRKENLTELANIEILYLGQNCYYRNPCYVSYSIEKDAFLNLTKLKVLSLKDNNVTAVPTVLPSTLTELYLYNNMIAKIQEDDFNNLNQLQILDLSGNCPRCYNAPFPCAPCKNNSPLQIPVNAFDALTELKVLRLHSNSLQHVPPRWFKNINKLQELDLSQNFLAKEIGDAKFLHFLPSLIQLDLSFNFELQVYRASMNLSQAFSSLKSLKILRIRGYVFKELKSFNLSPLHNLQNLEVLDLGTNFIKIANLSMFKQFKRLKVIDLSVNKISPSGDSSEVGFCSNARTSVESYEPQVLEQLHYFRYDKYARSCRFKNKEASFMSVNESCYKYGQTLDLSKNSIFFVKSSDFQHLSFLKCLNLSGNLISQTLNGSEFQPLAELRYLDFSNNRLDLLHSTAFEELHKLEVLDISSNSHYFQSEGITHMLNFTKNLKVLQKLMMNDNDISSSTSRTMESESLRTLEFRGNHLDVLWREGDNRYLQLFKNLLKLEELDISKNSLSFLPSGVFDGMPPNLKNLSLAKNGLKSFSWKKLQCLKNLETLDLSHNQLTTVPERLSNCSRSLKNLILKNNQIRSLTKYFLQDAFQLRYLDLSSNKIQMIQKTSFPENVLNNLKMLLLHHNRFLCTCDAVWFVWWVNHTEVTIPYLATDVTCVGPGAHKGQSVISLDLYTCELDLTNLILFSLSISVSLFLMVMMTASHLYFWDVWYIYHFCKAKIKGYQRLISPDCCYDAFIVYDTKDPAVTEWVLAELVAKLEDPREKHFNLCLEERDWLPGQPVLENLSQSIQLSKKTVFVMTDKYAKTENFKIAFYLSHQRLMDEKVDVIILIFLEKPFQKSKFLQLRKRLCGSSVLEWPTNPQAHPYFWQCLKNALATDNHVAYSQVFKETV
The data set is described as follows: HEK293-Blue-hTLR7 cells assay (SEAP reporter, NF-κB activation).

Data set [2] in a line: Thermodynamic solubility assay (THESA), equilibrium solubility. The class given is physicochemical. The conditions noted are these: 22 °C, aqueous buffer, thermodynamic from solid; 50 mM phosphate buffer (pH 6.5), room temperature (22±2° C.). The procedure:
The thermodynamic (equilibrium) solubility is the saturation solubility of a compound at the end of the dissolution process, where the dissolved compound is in equilibrium with the undissolved material in excess. The thermodynamic solubility is determined by dispensing a solid compound into a solvent. This is often deemed as the true solubility of the compound and is a critical piece of information in formulation development. The thermodynamic solubility assay (THESA) is a widely used tool for the measurement of equilibrium solubility for the later drug discovery process and is considered as a gold standard solubility assay.
Approximately 1-2 mg of each compound was added into 300 μL of 50 mM phosphate buffer (pH 6.5) at room temperature (22±2° C.). Each sample is placed in a microanalysis tube, which was sonicated for 1 h and shaken for 2 h. All suspensions were left overnight (about 16 h). On the next day, the samples were filtered into a V-bottom plate with a micronic filterplate to separate the solid material from the solution. Then, all solutions were diluted into 96 well V-bottom microplates and analyzed by UPLC-UV. The calibration line was established by UPLC using 5 different dilutions of the compound in a DMSO stock solution, made in micronic tubes (concentration approximately 1 mg/mL). Dilutions took place with DMSO. From this regression equation the solubility of the compound was determined. In cases where the drug was completely dissolved in the buffer, the value for equilibrium solubility was assumed to be higher than the value determined by UPLC and reported as such.

Excerpt for human TLR7: A stable HEK293-Blue-h TLR7 cell line was purchased from InvivoGen (Cat. #: hkb-htlr7, San Diego, California, USA). These cells were designed for studying the stimulation of human TLR7 by monitoring the activation of NF-κB. A SEAP (secreted embryonic alkaline phosphatase) reporter gene was placed under the control of the IFN-β minimal promoter fused to five NF-κB and AP-1-binding sites. The SEAP was induced by activating NF-κB and AP-1 via stimulating HEK-Blue hTLR7 cells with TLR7 ligands. Therefore the reporter expression was regulated by the NF-κB promoter upon stimulation of human TLR7 for 20 hrs. The cell culture supernatant SEAP reporter activity was determined using QUANTI-Blue™ kit (Cat. #: rep-qb1, Invivogen, San Diego, Ca, USA) at a wavelength of 640 nm, a detection medium that turns purple or blue in the presence of alkaline phosphatase.
HEK293-Blue-hTLR7 cells were incubated at a density of 250,000˜450,000 cells/mL in a volume of 180 μL in a 96-well plate in Dulbecco's Modified Eagle's medium (DMEM) containing 4.5 g/L glucose, 50 U/mL penicillin, 50 mg/mL streptomycin, 100 mg/mL Normocin, 2 mM L-glutamine, 10% (V/V) heat-inactivated fetal bovine serum for 24 hrs. Then the HEK293-Blue-hTLR7 cells were incubated with addition of 20 μL test compound in a serial dilution in the presence of final DMSO at 1% and perform incubation under 37° C. in a CO2 incubator for 20 hrs.

The term kinetic solubility denotes the concentration staying in solution when a stock, usually in DMSO, is diluted into the medium. Usually EC50 stands for the midpoint of the concentration-response curve. Low readings indicate higher potency in that assay, high ones lower potency in that assay. As for `CP(C)(=O)c1nc(N)c2[nH]c(=O)n(Cc3ccc(N4CCC(N)C4)nc3)c2n1` (stereo not shown) [Example 3, 6-amino-9-[[6-(3-aminopyrrolidin-1-yl)-3-pyridyl]methyl]-2-dimethylphosphoryl-7H-purin-8-one], the kinetic solubility in data set [1] was more than 600 µg/mL. The molecule further returned an EC50 on human TLR7 of 28 nM.

`CC1(C)CN(c2ccc(Cn3c(=O)[nH]c4c(N)nc(P(C)(C)=O)nc43)cn2)CCN1` [Example 4, 6-amino-2-dimethylphosphoryl-9-[[6-(3,3-dimethylpiperazin-1-yl)-3-pyridyl]methyl]-7H-purin-8-one]: the kinetic solubility in data set [1] is more than 640 µg/mL. At human TLR7, this molecule returned a concentration giving a half-maximal response (EC50) of 10 nM.

Turning to `CP(C)(=O)c1nc(N)c2[nH]c(=O)n(Cc3ccc(N4CC5CCC4CN5)nc3)c2n1` (stereo not shown) [Example 5, 6-amino-9-[[6-(2,5-diazabicyclo[2.2.2]octan-2-yl)-3-pyridyl]methyl]-2-dimethylphosphoryl-7H-purin-8-one], the kinetic solubility in data set [1] was more than 570 µg/mL. Moreover, the response at human TLR7 was half-maximal at 12 nM (EC50).

As to `CP(C)(=O)c1nc(N)c2[nH]c(=O)n(Cc3ccc(N4CC5CNCC5C4)nc3)c2n1` (stereo not shown) [Example 6, 9-[[6-(2,3,3a,4,6,6a-hexahydro-1H-pyrrolo[3,4-c]pyrrol-5-yl)-3-pyridyl]methyl]-6-amino-2-dimethylphosphoryl-7H-purin-8-one], the solubility (kinetic) in data set [1] was more than 630 µg/mL. The response on human TLR7 was half-maximal at 27 nM (EC50).

As to `CP(C)(=O)c1nc(N)c2[nH]c(=O)n(Cc3ccc(NCCN4CCCC4)nc3)c2n1` [Example 7, 6-amino-2-dimethylphosphoryl-9-[[6-(2-pyrrolidin-1-ylethylamino)-3-pyridyl]methyl]-7H-purin-8-one], the solubility (kinetic) in data set [1] was more than 540 µg/mL. Further, on human TLR7, the concentration giving a half-maximal response (EC50) turned out to be 38 nM.

With `CP(C)(=O)c1nc(N)c2[nH]c(=O)n(Cc3ccc(NC4CCOCC4)nc3)c2n1` [Example 8, 6-amino-2-dimethylphosphoryl-9-[[6-(tetrahydropyran-4-ylamino)-3-pyridyl]methyl]-7H-purin-8-one], the kinetic solubility in data set [1] is more than 520 µg/mL. The same molecule displayed an EC50 on human TLR7 of 39 nM.

Regarding `CN(C)CC1CCN(c2ccc(Cn3c(=O)[nH]c4c(N)nc(P(C)(C)=O)nc43)cn2)C1` (stereo not shown) [Example 9, 6-amino-9-[[6-[3-[(dimethylamino)methyl]pyrrolidin-1-yl]-3-pyridyl]methyl]-2-dimethylphosphoryl-7H-purin-8-one], the solubility (kinetic) in data set [1] is more than 650 µg/mL. The EC50 on human TLR7 was 21 nM.

Regarding `CN1CCOC2(CCN(c3ccc(Cn4c(=O)[nH]c5c(N)nc(P(C)(C)=O)nc54)cn3)CC2)C1` [Example 10, 6-amino-2-dimethylphosphoryl-9-[[6-(4-methyl-1-oxa-4,9-diazaspiro[5.5]undecan-9-yl)-3-pyridyl]methyl]-7H-purin-8-one], the solubility (kinetic) in data set [1] was more than 650 µg/mL. The midpoint of the response at human TLR7, the EC50, lay at 24 nM.

As for `CN1CCC(Nc2ccc(Cn3c(=O)[nH]c4c(N)nc(P(C)(C)=O)nc43)cn2)C1` (stereo not shown) [Example 11, 6-amino-2-dimethylphosphoryl-9-[[6-[(1-methylpyrrolidin-3-yl)amino]-3-pyridyl]methyl]-7H-purin-8-one], in data set [1], the kinetic solubility was more than 620 µg/mL. Further, the EC50 on human TLR7 is 28 nM.

Take `CCN(C)CCNc1ccc(Cn2c(=O)[nH]c3c(N)nc(P(C)(C)=O)nc32)cn1` [Example 12, 6-amino-2-dimethylphosphoryl-9-[[6-[2-[ethyl(methyl)amino]ethylamino]-3-pyridyl]methyl]-7H-purin-8-one]: the kinetic solubility in data set [1] was more than 560 µg/mL. On human TLR7, this molecule gave an EC50 of 84 nM.

Consider `CC[P@](C)(=O)c1nc(N)c2[nH]c(=O)n(Cc3ccc(N4CCN(C)CC4)nc3)c2n1` [Example 13-B, 6-amino-2-[(S)-ethyl(methyl)phosphoryl]-9-[[6-(4-methylpiperazin-1-yl)-3-pyridyl]methyl]-7H-purin-8-one], for which, in data set [1], the kinetic solubility was more than 530 µg/mL.

As to `CC[P@@](C)(=O)c1nc(N)c2[nH]c(=O)n(Cc3ccc(N4CCN(S(C)(=O)=O)CC4)nc3)c2n1` [Example 14-A, 6-amino-2-[(R)-ethyl(methyl)phosphoryl]-9-[[6-(4-methylsulfonylpiperazin-1-yl)-3-pyridyl]methyl]-7H-purin-8-one], the kinetic solubility in data set [1] is 150 µg/mL.

In the case of `CC[P@](C)(=O)c1nc(N)c2[nH]c(=O)n(Cc3ccc(N4CCN(S(C)(=O)=O)CC4)nc3)c2n1` [Example 14-B, 6-amino-2-[(S)-ethyl(methyl)phosphoryl]-9-[[6-(4-methylsulfonylpiperazin-1-yl)-3-pyridyl]methyl]-7H-purin-8-one], the kinetic solubility in data set [1] worked out at 170 µg/mL.

With `CC[P@@](C)(=O)c1nc(N)c2[nH]c(=O)n(Cc3ccc(NCCNC)nc3)c2n1` [Example 17, 6-amino-2-[(R)-ethyl(methyl)phosphoryl]-9-[[6-[2-(methylamino)ethylamino]-3-pyridyl]methyl]-7H-purin-8-one], the solubility (kinetic) in data set [1] was more than 540 µg/mL. Moreover, the 50% effective concentration (EC50) at human TLR7 stood at 45 nM.

The term solubility (thermodynamic) denotes the concentration in solution at equilibrium with solid. For `CCP(=O)(CC)c1nc(N)c2[nH]c(=O)n(Cc3ccc(NCCN(C)C)nc3)c2n1` [Example 19, 6-amino-2-diethylphosphoryl-9-[[6-[2-(dimethylamino)ethylamino]-3-pyridyl]methyl]-7H-purin-8-one], the kinetic solubility in data set [1] is more than 580 µg/mL. In data set [2], this molecule came in with a thermodynamic solubility of 2370 µg/mL (≈ 5.47 mM). Further, the response at human TLR7 was half-maximal at 9 nM (EC50).
